Publication PMC9820345, “Metal Complexes of a 5-Nitro-8-Hydroxyquinoline-Proline Hybrid with Enhanced Water Solubility Targeting Multidrug Resistant Cancer Cells” (International Journal of Molecular Sciences, 2022)
Read-outs that look alike come from different tables or passages of the source.

Assays:
MES-SA = assay: In vitro cytotoxicity, MES-SA cells (fluorescent protein readout); type: cell-based, human; conditions: 144 h exposure
Source text: (§1) Cell lines: all cell culture reagents were obtained from Sigma-Aldrich; plasticware was purchased from Sarstedt (Nümbrecht, Germany); Human colon Colo205 (chemo-sensitive, ATCC-CCL-222) and Colo320 (Pgp/MDR1-expressing, doxorubicin-resistant, ATCC-CCL-220.1) adenocarcinoma cell lines were purchased from LGC Promochem, Teddington, UK; MES-SA and MES-SA/Dx5 uterine sarcoma cell lines were obtained from ATCC, where they were characterized by DNA fingerprinting. The expression of the Pgp efflux pump of MES-SA/Dx5 was proven by Western blot analysis in our former report, and was also reported for the Colo320 cells. The MES-SA and MES-SA/Dx5 cells used in this study were previously engineered to express the fluorescent proteins mCherry and eGFP, respectively, by lentiviral transduction.
(§2) MES-SA cell lines were maintained in DMEM, supplemented with 10% fetal bovine serum, 5 mmol/L glutamine, and 50 units/mL penicillin and streptomycin. Cells were tested and resulted negative for mycoplasma contamination with the MycoAlert mycoplasma detection Kit (Lonza Group, Basel, Switzerland). One week prior to the cytotoxicity assays, Dx5 eGFP cells were selected in 500 nM doxorubicin for one passage to ensure the overexpression of P-glycoprotein.
(§3) Cytotoxicity assays: The tested compounds were dissolved in PBS buffer to prepare 5 mM stock solutions, which were diluted in complete culture medium.
(§4) In the case of the MES-SA and MES-SA/Dx5 cells, cell suspensions of the fluorescent cell lines were pre-mixed in a 1:1 ratio and seeded in 20 µL medium in a density of 2500 cells/well (1250 cells/well each) in a 384-well plate. After an overnight incubation, a serial dilution of the compounds was added to the plate in a final volume of 60 µL. The P-gp inhibitor tariquidar was added to the cells 15 min prior to the test compounds. After 144 h of incubation, plates were measured for the fluorescent intensity of mCherry (EX/EM: 585 nm/610 nm) and eGFP (EX/EM: 485 nm/510 nm). Cell seeding, aspiration of medium, and addition of drugs were performed by a Hamilton StarLet automated liquid handling robot.
(§5) Inhibition of the cell growth (expressed as IC50: inhibitory concentration that reduces by 50% the growth of the cells exposed to the tested compounds) was determined from the sigmoid curve where 100 − ((ODsample − ODmedium control)/(ODcell control − ODmedium control)) × 100 values were plotted against the logarithm of compound concentrations. Curves for the data obtained on Colo205 and Colo320 cells were fitted by GraphPad Prism software (2021, Graphpad Software, version 7.00, San Diego, CA, USA) using the sigmoidal dose–response model (comparing variable and fixed slopes). From the MES-SA cell data, the IC50 values were calculated by our custom program, written by J. Sessler in C#. The p values were calculated by Student’s t-test. The IC50 values were always obtained from at least three independent experiments.

MES-SA/Dx5 = assay: In vitro cytotoxicity, MES-SA/Dx5 cells (fluorescent protein readout); type: cell-based, human; conditions: for IC50: 144 h exposure; for Selectivity ratio IC50 (MES-SA)/IC50 (MES-SA/Dx5): calculated from IC50 values in Table 4
Source text: as §1, §2, §3, §4, §5

Colo205 = assay: In vitro cytotoxicity, Colo205 cells (MTT); type: cell-based, human; conditions: 72 h exposure
Source text: as §1
(§6) The colon adenocarcinoma cells were cultured in RPMI 1640 medium supplemented with 10% heat-inactivated fetal bovine serum, 2 mM L-glutamine, 1 mM sodium pyruvate, and 100 mM HEPES. The cells were incubated at 37 °C, in a 5% CO2, 95% air atmosphere.
as §3
(§7) In the case of the Colo205 and Colo320 cells, two-fold serial dilutions were prepared in 100 μL medium. The semi-adherent colon adenocarcinoma cells were treated with Trypsin-Versene (EDTA) solution. They were adjusted to a density of 1 × 10^4 cells in 100 μL of RPMI 1640 medium and were added to each well, with the exception of the medium control wells. The final volume of the wells containing compounds and cells was 200 μL. The plates containing Colo205 and Colo320 cells were incubated at 37 °C for 72 h; at the end of the incubation period, 20 μL of 3-(4,5-dimethyl-2-thiazolyl)-2,5-diphenyl-2H-tetrazolium bromide (MTT) solution (from a stock solution of 5 mg/mL) was added to each well. After incubation at 37 °C for 4 h, 100 μL of sodium dodecyl sulfate (SDS) solution (10% in 0.01 M HCI) was added to each well, and the plates were further incubated at 37 °C overnight. Cell growth was determined by measuring the optical density (OD) at 540/630 nm with a Multiskan EX plate reader (Thermo Labsystems, Cheshire, WA, USA).
as §5, with “From the MES-SA cell data, the IC50 values were calculated by our custom program, written by J. Sessler in C#. The p values were calculated by Student’s t-test. The IC50 values were always obtained from at least three independent experiments.” left out

Colo320 = assay: In vitro cytotoxicity, Colo320 cells (MTT); type: cell-based, human; conditions: for IC50: 72 h exposure; for Selectivity ratio IC50 (Colo205)/IC50 (Colo320): calculated from IC50 values in Table 4
Source text: as §1, §6, §3, §7, §5

[1] = system: Enterococcus faecalis (ATCC 29212); assay: Antibacterial effect, MIC determination; type: cell-based; conditions: visual inspection, read-out: minimum inhibitory concentration (MIC)
Procedure: (§8) Escherichia coli (ATCC 25922), Klebsiella pneumoniae (ATCC 49618) were used as Gram-negative strains; and Staphylococcus aureus (ATCC 25923, methicillin-resistant (MRSA)), and Enterococcus faecalis (ATCC 29212) strains were applied as Gram-positive bacterial cultures in the experiments. MIC values of the complexes were determined in 96-well plates based on the Clinical and Laboratory Standard Institute guidelines (CLSI guidelines). The stock solutions of the compounds (dissolved in PBS buffer using 5 mM concentration) were diluted in 100 μL of Mueller Hinton Broth. Then, 10^−4 dilution of an overnight bacterial culture in 100 μL of medium was added to each well, with the exception of the medium control wells.

[2] = system: Escherichia coli (ATCC 25922); assay: Antibacterial effect, MIC determination; type: cell-based; conditions: visual inspection, read-out: minimum inhibitory concentration (MIC)
Procedure: as §8

[3] = system: Klebsiella pneumoniae (ATCC 49618); assay: Antibacterial effect, MIC determination; type: cell-based; conditions: visual inspection, read-out: minimum inhibitory concentration (MIC)
Procedure: as §8

[4] = system: Staphylococcus aureus (ATCC 25923, methicillin-resistant (MRSA)); assay: Antibacterial effect, MIC determination; type: cell-based; conditions: methicillin-resistant S. aureus (MRSA), 18 h, visual inspection, read-out: minimum inhibitory concentration (MIC)
Procedure: as §8

Row | SMILES | IC50 (MES-SA) [µM] | IC50 (MES-SA/Dx5) [µM] | Selectivity ratio IC50 (MES-SA)/IC50 (MES-SA/Dx5) (MES-SA/Dx5) | IC50 (Colo205) [µM] | IC50 (Colo320) [µM] | MIC ([1]; 18 h) [µM] | MIC ([2]; 18 h) [µM] | MIC ([3]; 18 h) [µM] | MIC [4] [µM] | Selectivity ratio IC50 (Colo205)/IC50 (Colo320) (Colo320) | IC50 (MES-SA; Homo sapiens, MES-SA) [µM] | IC50 (MES-SA/Dx5; Homo sapiens, MES-SA/Dx5) [µM] | IC50 (Colo205; Homo sapiens, COLO 205) [µM] | IC50 (Colo320; Homo sapiens, COLO 320) [µM] | MIC ([1]; ATCC29212, 18 h) [µM] | MIC ([2]; ATCC25922, 18 h) [µM] | MIC ([3]; ATCC49618, 18 h) [µM] | MIC ([4]; Staphylococcus aureus) [µM]
1 | Cc1ccc(C(C)C)cc1.O=C(O)[C@@H]1CCC[NH+]1Cc1cc([N+](=O)[O-])c2ccc[n+]3c2c1[O][Ru-]3[Cl].[Cl-] [RuCym-HQNO2-L-Pro, [RuCym(HQNO2-L-Pro)Cl]Cl] | 166 ± 37 | > 400 | ≤ 0.42 | > 100 | > 100 | > 100 | > 100 | > 100 | > 100 |  |  |  |  |  |  |  |  | 
2 | CC1=C(C)[C](C)([Rh]([Cl])[O]c2c(C[NH+]3CCC[C@H]3C(=O)O)cc([N+](=O)[O-])c3cccnc23)C(C)=C1C.[Cl-] [RhCp*-HQNO2-L-Pro, [RhCp*(HQNO2-L-Pro)Cl]Cl] | 167 ± 38 | 106 ± 8 | 1.58 | 35 ± 1 | 29.8 ± 0.2 | > 100 | > 100 | > 100 | 50 | 1.16 |  |  |  |  |  |  |  | 
3 | O=C(O)[C@@H]1CCCN1Cc1cc([N+](=O)[O-])c2cccnc2c1O [HQNO2-L-Pro, (2S)-1-((8-hydroxy-5-nitroquinolin-7-yl)methyl)pyrrolidin-1-ium-2-carboxylate] |  |  | 2.33 |  |  |  |  |  |  | 1.06 | 226 ± 17 | 97 ± 29 | 34 ± 1 | 32.4 ± 0.4 | > 100 | > 100 | > 100 | > 100
